The target of this assay is High affinity 3',5'-cyclic-AMP phosphodiesterase 7A (Homo sapiens, UniProt Q13946). As to the kind of experiment: Inhibition Assay: The PDE 7 (phosphodiesterase VII) inhibiting effect of the compounds of the present invention was performed by the following method, which was modified assay method described in Biochemical. Pharmacol. 48(6), 1219-1223 (1994). (1) The active fraction of PDE 7 (phosphodiesterase VII) was obtained. That is, MOLT-4 (obtainable from ATCC as ATCC No. CRL-1582), which was cell line of human acute lymphoblastic […] T cells, was incubated in RPMI1640 culture medium containing 10% fetal bovine serum to obtain 5x10^8 MOLT-4 cells. The cells were collected by centrifugation and suspended with 10 mL of buffer solution A [25 mM of tris-HCl, 5 mM of 2-mercaptoethnol, 2 mM of benzamidine, 2 mM of EDTA, 0.1 mM of 4-(2-aminoethyl)benzensulfonyl hydrochloride; pH 7.5], then homogenized by Polytron homogenizer. The homogenate were centrifuged under 25,000xG for 10 minutes at 4 C. The supernatant was separated and thus obtained supernatant was further centrifuged under 100,000xG for 60 minutes.
High affinity 3',5'-cyclic-AMP phosphodiesterase 7A, sequence (Q13946 whole entry): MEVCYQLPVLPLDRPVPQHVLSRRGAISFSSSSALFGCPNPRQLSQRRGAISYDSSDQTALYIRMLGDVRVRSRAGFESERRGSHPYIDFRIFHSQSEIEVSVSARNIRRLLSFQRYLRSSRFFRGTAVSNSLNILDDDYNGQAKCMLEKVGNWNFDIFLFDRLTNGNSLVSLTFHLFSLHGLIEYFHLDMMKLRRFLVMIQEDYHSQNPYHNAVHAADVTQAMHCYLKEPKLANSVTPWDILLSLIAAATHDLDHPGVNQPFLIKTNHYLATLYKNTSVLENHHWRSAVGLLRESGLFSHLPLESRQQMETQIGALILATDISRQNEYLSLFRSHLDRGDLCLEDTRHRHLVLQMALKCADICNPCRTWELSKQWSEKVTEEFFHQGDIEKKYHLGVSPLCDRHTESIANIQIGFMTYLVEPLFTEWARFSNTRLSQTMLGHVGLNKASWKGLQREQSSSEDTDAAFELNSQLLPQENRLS
Regarding `Cc1nn(C2CCCCC2)c2sc(C(=O)Nc3ccc(N4CCOCC4)cc3)cc12`, half-maximal inhibition (IC50) required 34 nM.

Regarding `COc1cc(NC(=O)c2cc3c(C)nn(C4CCCCC4)c3s2)ccc1C(=O)N1CCN(C)CC1`, the IC50 (commonly the concentration that inhibits the measured activity by half) was found to be 85 nM.

Consider `COc1cc(NC(=O)c2cc3c(C)nn(C4CCCCC4)c3s2)ccc1C(=O)N1CCC(O)CC1`, for which the IC50 was found to be 65 nM.

Regarding `Cc1nn(C2CCCCC2)c2sc(C(=O)Nc3ccc(N4CCN(C)CC4)c(Cl)c3)cc12`, the IC50 stood at 55 nM.

Regarding `Cc1nn(C2CCCCC2)c2sc(C(=O)NC3CC[C@@H](C(=O)N(C)C)C3)cc12` (stereo partly specified), the IC50 was determined as 13 nM. Against the preceding compound, the IC50 is about 4.2-fold lower.

`Cc1nn(C2CCOCC2)c2sc(C(=O)N[C@H]3CC[C@H](N4CCOCC4)CC3)cc12` displayed an IC50 of 24 nM.

(Values after ChEMBL document CHEMBL3638901, “Thienopyrazole derivative having PDE7 inhibitory activity” (2014).)
